Source: the CheMixHub ionic liquid set
± gives the uncertainty stated by the source.

Test: xn = mol fraction of the nth substance listed
Conditions: 100 kPa

CCCCCCCCCCCC[P+](CC)(CC)CC.N#Cc1ccc[n-]1 + OCC(O)CO
Conditions | electrical conductivity, 293.15 K [S/m] | electrical conductivity, 303.15 K [S/m] | electrical conductivity, 313.15 K [S/m] | viscosity, 293.15 K [mPa·s] | viscosity, 298.15 K [mPa·s] | viscosity, 303.15 K [mPa·s] | viscosity, 313.15 K [mPa·s]
x1 = 0.001 | 0.0008 ± 0.0001 | 0.0015 ± 0.0001 | 0.0028 ± 0.0001 | – | – | – | –
x1 = 0.003 | 0.0025 ± 0.0001 | 0.0035 ± 0.0002 | 0.0061 ± 0.0003 | 1352 ± 210 | 860 ± 130 | 540 ± 80 | 214 ± 31
x1 = 0.005 | 0.0037 ± 0.0002 | 0.0051 ± 0.0002 | 0.0091 ± 0.0004 | – | – | – | –
x1 = 0.007 | 0.0052 ± 0.0002 | 0.0065 ± 0.0003 | 0.0116 ± 0.0005 | – | – | – | –
x1 = 0.01 | 0.0064 ± 0.0003 | 0.0076 ± 0.0004 | 0.0137 ± 0.0006 | 1415 ± 220 | 910 ± 140 | 573 ± 85 | 230 ± 34
x1 = 0.013 | 0.0076 ± 0.0003 | 0.0105 ± 0.0005 | 0.0192 ± 0.0009 | – | – | – | –
x1 = 0.016 | 0.0081 ± 0.0003 | 0.0125 ± 0.0006 | 0.0233 ± 0.0011 | – | – | – | –
x1 = 0.021 | 0.0086 ± 0.0004 | 0.0154 ± 0.0007 | 0.0287 ± 0.0012 | – | – | – | –
x1 = 0.026 | 0.0096 ± 0.0004 | 0.0166 ± 0.0007 | 0.0312 ± 0.0013 | 1652 ± 260 | 1024 ± 160 | 620 ± 92 | 254 ± 37
x1 = 0.032 | 0.0102 ± 0.0005 | 0.0186 ± 0.0008 | 0.0342 ± 0.0014 | – | – | – | –
x1 = 0.041 | 0.0111 ± 0.0005 | 0.0201 ± 0.0009 | 0.0368 ± 0.0016 | 2113 ± 330 | 1316 ± 200 | 790 ± 120 | 321 ± 47
x1 = 0.049 | 0.0122 ± 0.0006 | 0.0233 ± 0.0011 | 0.0429 ± 0.0019 | – | – | – | –
x1 = 0.056 | 0.0129 ± 0.0006 | 0.0252 ± 0.0014 | 0.0463 ± 0.002 | 2377 ± 380 | 1481 ± 230 | 910 ± 140 | 364 ± 54
x1 = 0.094 | 0.014 ± 0.0006 | 0.0256 ± 0.0011 | 0.0475 ± 0.002 | – | – | – | –
x1 = 0.139 | 0.012 ± 0.0006 | 0.0279 ± 0.0012 | 0.0522 ± 0.0021 | 2442 ± 390 | 1568 ± 240 | 1018 ± 150 | 442 ± 66
x1 = 0.196 | – | – | – | 2342 ± 370 | 1501 ± 230 | 960 ± 140 | 423 ± 63
x1 = 0.292 | 0.0092 ± 0.0005 | 0.0261 ± 0.0011 | 0.0495 ± 0.002 | 1719 ± 270 | 1114 ± 170 | 730 ± 110 | 336 ± 50
x1 = 0.343 | 0.0092 ± 0.0004 | 0.0203 ± 0.0009 | 0.0398 ± 0.0017 | 1481 ± 230 | 970 ± 150 | 658 ± 99 | 307 ± 45
x1 = 0.426 | – | – | – | 1086 ± 170 | 710 ± 110 | 473 ± 70 | 230 ± 33
x1 = 0.481 | 0.0109 ± 0.0005 | 0.0206 ± 0.0009 | 0.0404 ± 0.0017 | – | – | – | –
x1 = 0.542 | – | – | – | 940 ± 140 | 638 ± 95 | 443 ± 65 | 231 ± 33
x1 = 0.677 | 0.0131 ± 0.0006 | 0.0239 ± 0.0011 | 0.0453 ± 0.002 | 860 ± 130 | 600 ± 89 | 425 ± 62 | 214 ± 31
x1 = 0.815 | 0.0183 ± 0.0008 | 0.0357 ± 0.0015 | 0.0635 ± 0.0026 | 623 ± 93 | 441 ± 65 | 321 ± 47 | 164 ± 24
x1 = 1 | 0.0267 ± 0.0011 | 0.0448 ± 0.0019 | 0.0786 ± 0.0032 | 422 ± 62 | 296 ± 43 | 212 ± 30 | 117 ± 17
